Assay results as given in patent US8802720B2, “Acylamino-substituted fused cyclopentanecarboxylic acid derivatives and their use as pharmaceuticals” (SANOFI, priority 2008, dated 2014).

Each compound was assayed against human Edg-2 receptor (LPA1 receptor) (Homo sapiens, UniProt Q92633) (assay: Edg-2 receptor inhibition by FLIPR calcium fluorescence measurement (LPA-mediated calcium liberation)). Details: CHO cells stably overexpressing human Edg-2 receptor; LPA 18:1 100 nM; fluo-4 fluorescence; triplicate; read-out: Inhibitory concentrations IC50 for inhibition of the Edg-2 receptor.
Type: cell-based
Outline: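 CHO cells stably overexpressing human Edg-2 were fluo-4 loaded and pre-incubated ~5 min with compound (≤0.3% DMSO) in HBSS/HEPES/probenecid, pH 7.5. Then LPA 18:1 at 100 nM final was added. Peak calcium fluorescence over ~3 min, baseline-corrected versus DMSO, gave % inhibition in triplicate and IC50.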

human Edg-2 receptor (LPA1 receptor), sequence (Q92633 whole entry): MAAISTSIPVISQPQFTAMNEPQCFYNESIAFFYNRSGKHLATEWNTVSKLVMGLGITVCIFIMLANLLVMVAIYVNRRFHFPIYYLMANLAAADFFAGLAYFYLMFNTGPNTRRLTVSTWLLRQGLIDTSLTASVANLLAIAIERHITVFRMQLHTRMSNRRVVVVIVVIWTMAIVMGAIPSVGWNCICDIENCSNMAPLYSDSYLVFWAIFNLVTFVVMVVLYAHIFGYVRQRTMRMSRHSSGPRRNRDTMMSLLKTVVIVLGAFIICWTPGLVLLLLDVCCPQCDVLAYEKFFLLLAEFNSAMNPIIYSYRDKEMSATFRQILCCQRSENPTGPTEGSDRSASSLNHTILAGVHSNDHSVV

| SMILES | IC50 [nM] |
| --- | --- |
| O=C(NC1(C(=O)O)Cc2ccccc2C1)c1ccc(C(F)(F)F)c(OCCc2cc(Cl)ccc2F)c1 [Example 189] | < 100 |
| Cc1nccnc1CCOc1cc(C(=O)NC2(C(=O)O)Cc3ccccc3C2)ccc1C(F)(F)F [Example 190] | 1000 to 30000 |
| O=C(NC1(C(=O)O)Cc2ccccc2C1)c1ccc(C(F)(F)F)c(OCCc2cc(C(F)(F)F)ccc2F)c1 [Example 191] | < 100 |
| Cc1ccc(F)c(CCOc2cc(C(=O)NC3(C(=O)O)Cc4ccccc4C3)ccc2C(F)(F)F)c1 [Example 192] | < 100 |
| COc1ccc(C(=O)NC2(C(=O)O)Cc3ccccc3C2)cc1OCCc1cc(Cl)ccc1F [Example 193, 2-{3-[2-(5-Chloro-2-fluoro-phenyl)-ethoxy]-4-methoxy-benzoylamino}-indane-2-carboxylic acid] | < 100 |
| COc1ccc(C(=O)NC2(C(=O)O)Cc3ccccc3C2)cc1C#Cc1ccc(C(F)(F)F)cc1 [Example 194, 2-[4-Methoxy-3-(4-trifluoromethyl-phenylethynyl)-benzoylamino]-indane-2-carboxylic acid] | 1000 to 30000 |
| COc1ccc(C(=O)NC2(C(=O)O)Cc3ccccc3C2)cc1C#Cc1ccc(C(C)(C)C)cc1 [Example 195, 2-[3-(4-tert-Butyl-phenylethynyl)-4-methoxy-benzoylamino]-indane-2-carboxylic acid] | 100 to 1000 |
| COc1ccc(C(=O)NC2(C(=O)O)Cc3ccccc3C2)cc1-c1cccc(C(C)C)c1 [Example 196, 2-[(3′-Isopropyl-6-methoxy-biphenyl-3-carbonyl)-amino]-indane-2-carboxylic acid] | < 100 |
| COc1ccc(C(=O)NC2(C(=O)O)Cc3ccccc3C2)cc1-c1ccc(CC(C)C)cc1 [Example 197] | 1000 to 30000 |
| COc1ccc(C(=O)NC2(C(=O)O)Cc3ccccc3C2)cc1-c1cccc(Cl)c1 [Example 198] | < 100 |
| COc1ccc(C(=O)NC2(C(=O)O)Cc3ccccc3C2)cc1-c1cccc(CC#N)c1 [Example 199, 2-[(3′-cyanomethyl-6-methoxy-biphenyl-3-carbonyl)-amino]-indane-2-carboxylic acid] | < 100 |
| COc1ccc(C(=O)NC2(C(=O)O)Cc3ccccc3C2)cc1-c1cccc(C(F)(F)F)c1 [Example 200] | < 100 |
| COc1ccc(C(=O)NC2(C(=O)O)Cc3ccccc3C2)cc1-c1ccc(C(C)(C)C)cc1 [Example 201] | 1000 to 30000 |
| CCc1cccc(-c2cc(C(=O)NC3(C(=O)O)Cc4ccccc4C3)ccc2OC)c1 [Example 202] | < 100 |
| COc1ccc(C(=O)NC2(C(=O)O)Cc3ccccc3C2)cc1-c1cccc(NS(=O)(=O)N(C)C)c1 [Example 203] | < 100 |
| COc1ccc(C(=O)NC2(C(=O)O)Cc3ccccc3C2)cc1OCCc1cc(F)ccc1F [Example 204, 2-{3-[2-(2,5-Difluoro-phenyl)-ethoxy]-4-methoxy-benzoylamino}-indane-2-carboxylic acid] | < 100 |
| CCc1ccc(CCOc2cc(C(=O)NC3(C(=O)O)Cc4ccccc4C3)ccc2OC)nc1 [Example 205, 2-{3-[2-(5-Ethyl-pyridin-2-yl)-ethoxy]-4-methoxy-benzoylamino}-indane-2-carboxylic acid] | 1000 to 30000 |
| COc1ccc(C(=O)NC2(C(=O)O)Cc3ccccc3C2)cc1OCCc1scnc1C [Example 206, 2-{4-Methoxy-3-[2-(4-methyl-thiazol-5-yl)-ethoxy]-benzoylamino}-indane-2-carboxylic acid] | 1000 to 30000 |
| COc1ccc(C(=O)NC2(C(=O)O)Cc3nccnc3C2)cc1OCCc1cccc(C)c1 [Example 207, 6-[4-Methoxy-3-(2-m-tolyl-ethoxy)-benzoylamino]-6,7-dihydro-5H-cyclopentapyrazine-6-carboxylic acid] | 1000 to 30000 |
| COc1ncc(C(=O)NC2(C(=O)O)Cc3ccccc3C2)cc1OCCc1cccc(C)c1 [Example 208, 2-{[6-Methoxy-5-(2-m-tolyl-ethoxy)-pyridine-3-carbonyl]-amino}-indane-2-carboxylic acid] | < 100 |
| COc1ccc(C(=O)NC2(C(=O)O)Cc3ccccc3C2C)cc1OCCc1cccc(C)c1 (stereo not drawn) [Example 209, 2-[4-Methoxy-3-(2-m-tolyl-ethoxy)-benzoylamino]-1-methyl-indane-2-carboxylic acid] | < 100 |
| COc1ccc(C(=O)NC2(C(=O)O)Cc3ccccc3C2)cc1OCCc1cccc(C(C)(CO)CO)c1 [Example 210, 2-(3-{2-[3-(2-Hydroxy-1-hydroxymethyl-1-methyl-ethyl)-phenyl]-ethoxy}-4-methoxy-benzoylamino)-indane-2-carboxylic acid] | 100 to 1000 |
| COc1ccc(C(=O)NC2(C(=O)O)CC3CCCCC3C2)cc1OCCc1cccc(C)c1 (stereo not drawn) [Example 211, 2-[4-Methoxy-3-(2-m-tolyl-ethoxy)-benzoylamino]-octahydro-indene-2-carboxylic acid] | < 100 |
| COc1ccc(C(=O)NC2(C(=O)O)Cc3ccccc3C2)cc1OCC(F)(F)c1cccc(Cl)c1 [Example 212, 2-{3-[2-(3-Chloro-phenyl)-2,2-difluoro-ethoxy]-4-methoxy-benzoylamino}-indane-2-carboxylic acid] | < 100 |

| SMILES | IC50 [nM] |
| --- | --- |
| COc1ccc(C(=O)NC2(C(=O)O)Cc3ccccc3C2)cc1OCC(F)(F)c1ccccc1 [Example 213, 2-[3-(2,2-Difluoro-2-phenyl-ethoxy)-4-methoxy-benzoylamino]-indane-2-carboxylic acid] | < 100 |
| COc1ccc(C(=O)NC2(C(=O)O)Cc3c(F)ccc(F)c3C2)cc1OCCc1cccc(C)c1 [Example 214, 4,7-Difluoro-2-[4-methoxy-3-(2-m-tolyl-ethoxy)-benzoylamino]-indane-2-carboxylic acid] | < 100 |
| COc1ccc(C(=O)NC2(C(=O)O)Cc3cccc(F)c3C2)cc1OCCc1cccc(C)c1 (stereo not drawn) [Example 215, 4-Fluoro-2-[4-methoxy-3-(2-m-tolyl-ethoxy)-benzoylamino]-indane-2-carboxylic acid] | < 100 |
| COc1ccc(C(=O)NC2(C(=O)O)Cc3cccc(C)c3C2)cc1OCCc1cccc(C)c1 (stereo not drawn) [Example 216, 2-[4-Methoxy-3-(2-m-tolyl-ethoxy)-benzoylamino]-4-methyl-indane-2-carboxylic acid] | < 100 |
| COc1ccc(C(=O)NC2(C(=O)O)Cc3cccc(Cl)c3C2)cc1OCCc1cccc(C)c1 (stereo not drawn) [Example 217, 4-Chloro-2-[4-methoxy-3-(2-m-tolyl-ethoxy)-benzoylamino]-indane-2-carboxylic acid] | < 100 |
| COc1ccc(C(=O)NC2(C(=O)O)Cc3ccc(C#N)cc3C2)cc1OCCc1cccc(C)c1 (stereo not drawn) [Example 218, 5-Cyano-2-[4-methoxy-3-(2-m-tolyl-ethoxy)-benzoylamino]-indane-2-carboxylic acid] | < 100 |
| COc1ccc(C(=O)NC2(C(=O)O)Cc3ccc(C(N)=O)cc3C2)cc1OCCc1cccc(C)c1 (stereo not drawn) [Example 219, 5-Carbamoyl-2-[4-methoxy-3-(2-m-tolyl-ethoxy)-benzoylamino]-indane-2-carboxylic acid] | 1000 to 30000 |
| COc1ncc(C(=O)NC2(C(=O)O)Cc3ccccc3C2)cc1-c1cccc(C(C)C)c1 [Example 221, 2-{[5-(3-Isopropyl-phenyl)-6-methoxy-pyridine-3-carbonyl]-amino}-indane-2-carboxylic acid] | < 100 |
| COc1ncc(C(=O)NC2(C(=O)O)Cc3ccccc3C2)cc1-c1cccc(SC)c1 [Example 222, 2-{[6-Methoxy-5-(3-methylsulfanyl-phenyl)-pyridine-3-carbonyl]-amino}-indane-2-carboxylic acid] | < 100 |
| COc1ncc(C(=O)NC2(C(=O)O)Cc3ccccc3C2)cc1-c1cccc(Cl)c1 [Example 223] | < 100 |
| COc1ncc(C(=O)NC2(C(=O)O)Cc3ccccc3C2)cc1-c1cccc(C)c1 [Example 224, 2-{[6-methoxy-5-(3-methyl-phenyl)-pyridine-3-carbonyl]-amino}-indane-2-carboxylic acid] | < 100 |
| COc1ncc(C(=O)NC2(C(=O)O)Cc3ccccc3C2)cc1-c1ccccc1Cl [Example 225] | 100 to 1000 |
| COc1ncc(C(=O)NC2(C(=O)O)Cc3ccccc3C2)cc1-c1ccc(Cl)cc1 [Example 226] | < 100 |
| COc1ncc(C(=O)NC2(C(=O)O)Cc3ccccc3C2)cc1-c1cccc(Cl)c1Cl [Example 228] | < 100 |
| COc1ncc(C(=O)NC2(C(=O)O)Cc3ccccc3C2)cc1-c1cc(F)c(F)c(F)c1 [Example 229] | < 100 |
| COc1ncc(C(=O)NC2(C(=O)O)Cc3ccccc3C2)cc1-c1cccc(C(F)(F)F)c1F [Example 230] | < 100 |
| COc1ncc(C(=O)NC2(C(=O)O)Cc3ccccc3C2)cc1-c1cccc(NS(=O)(=O)N(C)C)c1 [Example 231] | < 100 |
| CCSc1cccc(-c2cc(C(=O)NC3(C(=O)O)Cc4ccccc4C3)cnc2OC)c1 [Example 233] | < 100 |
| COc1ncc(C(=O)NC2(C(=O)O)Cc3ccccc3C2)cc1-c1cccc(OC(F)(F)F)c1 [Example 234] | < 100 |
| COc1ncc(C(=O)NC2(C(=O)O)Cc3ccccc3C2)cc1-c1cc(Cl)cc(C(F)(F)F)c1 [Example 235] | < 100 |
| COc1ncc(C(=O)NC2(C(=O)O)Cc3ccccc3C2)cc1-c1cccc(C#N)c1 [Example 236] | < 100 |
| CCS(=O)(=O)c1cccc(-c2cc(C(=O)NC3(C(=O)O)Cc4ccccc4C3)cnc2OC)c1 [Example 237, 2-{[5-(3-Ethanesulfonyl-phenyl)-6-methoxy-pyridine-3-carbonyl]-amino}-indane-2-carboxylic acid] | 100 to 1000 |
| COc1ccc(C(=O)NC2(C(=O)O)Cc3ccccc3C2)cc1Oc1ccccc1C [Example 238, 2-(4-Methoxy-3-o-tolyloxy-benzoylamino)-indane-2-carboxylic acid] | 100 to 1000 |
| COc1ccc(C(=O)NC2(C(=O)O)Cc3ccccc3C2)cc1Oc1cccc(C)c1 [Example 239, 2-(4-Methoxy-3-m-tolyloxy-benzoylamino)-indane-2-carboxylic acid] | 1000 to 30000 |
